Molecules are shown by their SMILES.

Tested on in the first data set: not listed separately
Put plainly: Particle size and PDI of lipid nanoparticles (Nano-ZSZEN3600, Malvern). In kind it is physicochemical. Conditions: LNPs, Formulation Method 1. The method, then: (§1) The amino lipid compound of the invention was mixed with DOPE, cholesterol and PEG2000-DMG in a molar ratio of 45:10:42.5:2.5, and dissolved in absolute ethanol such that the molar concentration of the amino lipid compound was 0.001-0.01 mmol/L. By using a microinjection pump, the resultant ethanol solution and a sodium acetate solution (50 mM, pH=4.0) in which luciferase mRNA (Fluc mRNA, TriLink) was dissolved were mixed in a volume ratio of 1:3 in a microchannel chip to prepare a crude solution of lipid nanoparticles, which was then dialyzed in 1×PBS at a controlled temperature of 4° C. for 6 h using a dialysis box (Fisher, MWCO 20,000) and filtered through a 0.22 μm microporous filter membrane before use. The mass ratio of the amino lipid compound to Fluc mRNA was about 10:1. The resultant solution of lipid nanoparticles (LNPs) was administered to the tested animals by subcutaneous administration.
Characterization of particle size: the particle size and PDI of the prepared lipid nanoparticles were determined by Nano-ZSZEN3600 (Malvern). 40 uL of LNP solution was taken for particle size measurement with circulation for three times, 30 s for each circulation.
(§2) The preparation method was the same as Formulation method 1, except that amino lipid compound, DSPC, cholesterol and PEG2000-DMG were used in a molar ratio of 50:10:38.5: 1.5. The resultant solution of lipid nanoparticles (LNPs) was administered to the tested animals by tail vein and intramuscular injection.
Turning to `CCCCCCCCCCCCCCCCSc1nc(NCCCN2CCN(C)CC2)nc(SCCCCCCCC)n1` [Compound S8S16D9], the PDI is 0.01.
Take `CCCCCCCCCCCCCCCCSc1nc(NCC2CCN(C)CC2)nc(SCCCCCCCCCC)n1` [Compound S10S16D10]: the PDI came out at 0.03.
On the same count and under the same terms, for `CCCCCCCCCCCCCNc1nc(NCCCN(C)C)nc(SCCCCCCCCCCCC)n1` [Compound S12N13D6] the value was 0.05; for `CCCCCCCCCCCCCCCSc1nc(NCCCCCCCCCCC)nc(NCCN2CCN(C)CC2)n1` [Compound S15N11D5], 0.02.

Staying with this data set, now noted: LNPs, Formulation Method 1 (amino lipid:DOPE:cholesterol:PEG2000-DMG 45:10:42.5:2.5), Fluc mRNA.
As to `CCCCCCCCCCCCCCCCSc1nc(NCCCN2CCN(C)CC2)nc(SCCCCCCCC)n1` [Compound S8S16D9], the “Particle size (nm)” value is 96 ± 5 nm.
Regarding `CCCCCCCCCCCCCCCCSc1nc(NCC2CCN(C)CC2)nc(SCCCCCCCCCC)n1` [Compound S10S16D10], the “Particle size (nm)” value is recorded as 136 ± 5 nm.
Regarding `CCCCCCCCCCCCCNc1nc(NCCCN(C)C)nc(SCCCCCCCCCCCC)n1` [Compound S12N13D6], the “Particle size (nm)” value is 89 ± 5 nm.
Still for that read-out and setting: for `CCCCCCCCCCCCCCCSc1nc(NCCCCCCCCCCC)nc(NCCN2CCN(C)CC2)n1` [Compound S15N11D5] the value was 79 ± 5 nm.

The same data set, now with this note: LNPs, Formulation method 2.
Regarding `CCCCCCCCCCCCCCCCSc1nc(NCCCN2CCN(C)CC2)nc(SCCCCCCCC)n1` [Compound S8S16D9], the PDI amounted to 0.02.
Consider `CCCCCCCCCCCCCCCCSc1nc(NCC2CCN(C)CC2)nc(SCCCCCCCCCC)n1` [Compound S10S16D10], for which the PDI stood at 0.04.
`CCCCCCCCCCCCCNc1nc(NCCCN(C)C)nc(SCCCCCCCCCCCC)n1` [Compound S12N13D6] displayed a PDI of 0.04.
Molecule `CCCCCCCCCCCCCCCSc1nc(NCCCCCCCCCCC)nc(NCCN2CCN(C)CC2)n1` [Compound S15N11D5] displayed a PDI of 0.01.

The data set is the same for the next values; noted with them: LNPs, Formulation method 2 (amino lipid:DSPC:cholesterol:PEG2000-DMG 50:10:38.5:1.5), Fluc mRNA.
Turning to `CCCCCCCCCCCCCCCCSc1nc(NCCCN2CCN(C)CC2)nc(SCCCCCCCC)n1` [Compound S8S16D9], the “Particle size (nm)” value is listed as 115 ± 5 nm.
As for `CCCCCCCCCCCCCCCCSc1nc(NCC2CCN(C)CC2)nc(SCCCCCCCCCC)n1` [Compound S10S16D10], the “Particle size (nm)” value was 125 ± 5 nm.
As for `CCCCCCCCCCCCCNc1nc(NCCCN(C)C)nc(SCCCCCCCCCCCC)n1` [Compound S12N13D6], the “Particle size (nm)” value was found to be 96 ± 5 nm.
Regarding `CCCCCCCCCCCCCCCSc1nc(NCCCCCCCCCCC)nc(NCCN2CCN(C)CC2)n1` [Compound S15N11D5], the “Particle size (nm)” value is listed as 95 ± 5 nm.

Tested on in a further data set: not listed separately
Put plainly: Encapsulation rate of LNP RNA (Qubit RNA HS Assay kit). In kind it is physicochemical. Conditions: LNPs, Formulation Method 1. The protocol: as §1
Detection of encapsulation rate: the concentration of LNP RNA was detected by Qubit® RNA HS Assay kit. The theoretical RNA concentration was given by the total amount of RNA input divided by the total volume of the final solution.
as §2
For `CCCCCCCCCCCCCCCCSc1nc(NCCCN2CCN(C)CC2)nc(SCCCCCCCC)n1` [Compound S8S16D9], the Encapsulation rate is listed as 98.7%.
The molecule `CCCCCCCCCCCCCCCCSc1nc(NCC2CCN(C)CC2)nc(SCCCCCCCCCC)n1` [Compound S10S16D10] displayed an Encapsulation rate of 99.5%.
Still for that read-out and setting: for `CCCCCCCCCCCCCNc1nc(NCCCN(C)C)nc(SCCCCCCCCCCCC)n1` [Compound S12N13D6] the value was 99.0%; for `CCCCCCCCCCCCCCCSc1nc(NCCCCCCCCCCC)nc(NCCN2CCN(C)CC2)n1` [Compound S15N11D5], 99.2%.

The same data set, now with this note: LNPs, Formulation method 2.
Take `CCCCCCCCCCCCCCCCSc1nc(NCCCN2CCN(C)CC2)nc(SCCCCCCCC)n1` [Compound S8S16D9]: the Encapsulation rate amounted to 99.4%.
`CCCCCCCCCCCCCCCCSc1nc(NCC2CCN(C)CC2)nc(SCCCCCCCCCC)n1` [Compound S10S16D10] yielded an Encapsulation rate of 99.2%.
For the molecule `CCCCCCCCCCCCCNc1nc(NCCCN(C)C)nc(SCCCCCCCCCCCC)n1` [Compound S12N13D6], the Encapsulation rate is given as 99.2%.
As to `CCCCCCCCCCCCCCCSc1nc(NCCCCCCCCCCC)nc(NCCN2CCN(C)CC2)n1` [Compound S15N11D5], the Encapsulation rate worked out at 98.8%.

The subject of another data set is BALB/c mice. The data set can be described thus: In vivo delivery of luciferase mRNA (Fluc mRNA) by lipid nanoparticles, in vivo imaging. Conditions: intramuscular administration, 0.5 mg/kg Fluc mRNA, after 12 hours. The protocol: as §1, §2
Animal Preparation: 6-week aged female BALB/c mice weighed about 20 g were selected and fed in a SPF-grade feeding room. Animal tests were conducted strictly according to the guidelines of national health institutions and the requirements of animal ethics.
In vivo delivery: 9 mice were assigned randomly to each group, and the lipid nanoparticle solution was injected by three routes of administration, i.e., subcutaneous, intramuscular and tail vein injection at a dosage of 0.5 mg/kg Fluc mRNA (3 mice for each route of administration). After 12 hours, 200 μL of 10 mg/mL potassium salt of […] (PerkinElmer) was injected into each mouse through the tail vein. After 10 min, the mice were placed under an in vivo imaging system (IVIS-200, Xenogen) to observe the total fluorescence intensity of each mouse and take photographs for record. The expression intensity of Fluc mRNA delivered by representative amino lipid compounds through the three routes of administration are shown in Table 5-7. DLin-MC3 was used as control.
Turning to `CCCCCCCCCCCCCCCCSc1nc(NCCCN2CCN(C)CC2)nc(SCCCCCCCC)n1` [Compound S8S16D9], the “Fluorescence intensity (expression intensity of Fluc mRNA)” value (“Fluorescence intensity” below) was determined as 8.2E+06.
With `CCCCCCCCCCCCCCCCSc1nc(NCC2CCN(C)CC2)nc(SCCCCCCCCCC)n1` [Compound S10S16D10], the “Fluorescence intensity” value came out at 3.2E+06.
With `CCCCCCCCCCCCCNc1nc(NCCCN(C)C)nc(SCCCCCCCCCCCC)n1` [Compound S12N13D6], the “Fluorescence intensity” value amounted to 1.2E+06.
As for `CCCCCCCCCCCCCCCSc1nc(NCCCCCCCCCCC)nc(NCCN2CCN(C)CC2)n1` [Compound S15N11D5], the “Fluorescence intensity” value was determined as 3.7E+06.

The same data set, now with this note: subcutaneous administration, 0.5 mg/kg Fluc mRNA, after 12 hours.
For `CCCCCCCCCCCCCCCCSc1nc(NCCCN2CCN(C)CC2)nc(SCCCCCCCC)n1` [Compound S8S16D9], the “Fluorescence intensity” value is reported as 4.2E+06.
Take `CCCCCCCCCCCCCCCCSc1nc(NCC2CCN(C)CC2)nc(SCCCCCCCCCC)n1` [Compound S10S16D10]: the “Fluorescence intensity” value is on record as 4.7E+07.
With `CCCCCCCCCCCCCNc1nc(NCCCN(C)C)nc(SCCCCCCCCCCCC)n1` [Compound S12N13D6], the “Fluorescence intensity” value is recorded as 8.6E+06.
On the same count and under the same terms, for `CCCCCCCCCCCCCCCSc1nc(NCCCCCCCCCCC)nc(NCCN2CCN(C)CC2)n1` [Compound S15N11D5] the value was 1.9E+08.

Staying with this data set, now noted: tail vein administration, 0.5 mg/kg Fluc mRNA, after 12 hours.
Consider `CCCCCCCCCCCCCCCCSc1nc(NCCCN2CCN(C)CC2)nc(SCCCCCCCC)n1` [Compound S8S16D9], for which the “Fluorescence intensity” value was 6.5E+06.
For the molecule `CCCCCCCCCCCCCCCCSc1nc(NCC2CCN(C)CC2)nc(SCCCCCCCCCC)n1` [Compound S10S16D10], the “Fluorescence intensity” value is given as 2.9E+06.
As for `CCCCCCCCCCCCCNc1nc(NCCCN(C)C)nc(SCCCCCCCCCCCC)n1` [Compound S12N13D6], the “Fluorescence intensity” value is 3.9E+06.
`CCCCCCCCCCCCCCCSc1nc(NCCCCCCCCCCC)nc(NCCN2CCN(C)CC2)n1` [Compound S15N11D5]: the “Fluorescence intensity” value came to 3.7E+06.

Another data set has as its system HEK293 cells. Put plainly: Preliminary screening as DNA vectors, GFP transfection of HEK293 cells. In kind it is cell-based. To be noted: HEK293 cells; lipid/DOPE liposome with 75 ng plasmid DNA (psin-EGFP-IRES-Puro); number of cells expressing GFP divided by total number of nuclei (Hoechst). The method, boiled down: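 Lipid + DOPE liposomes (NaOAc, pH 5.6) complexed w/ 75 ng psin-EGFP-IRES-Puro, 30 min RT; added to 3-5×10^4 HEK293/well, 37° C. Hoechst 0.2 μg/mL at 20-24 h, imaged after further 20-24 h. Efficiency = GFP+ cells / total nuclei.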
For `CCCCCCCCCCCCCCCCSc1nc(NCCCN2CCN(C)CC2)nc(SCCCCCCCC)n1` [Compound S8S16D9], the “Absolute DNA transfection efficiency in HEK293 cells” value amounted to 6.7%.
As for `CCCCCCCCCCCCCCCCSc1nc(NCC2CCN(C)CC2)nc(SCCCCCCCCCC)n1` [Compound S10S16D10], the “Absolute DNA transfection efficiency in HEK293 cells” value is given as 79.4%.

The next data set relates to HEK293 cells. Put plainly: Preliminary screening as mRNA vectors, EGFP mRNA transfection of HEK293 cells. Conditions: HEK293 cells, 96-well plates, EGFP mRNA 50 ng per well; percentage of GFP fluorescent cells relative to total number of cells (Hoechst). The format is cell-based. The method, boiled down:
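Each well of HEK293 cells received 50 ng of EGFP mRNA. Efficiency was expressed as percent GFP-expressing cells over Hoechst-defined total cell number.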
Take `CCCCCCCCCCCCCCCCSc1nc(NCCCN2CCN(C)CC2)nc(SCCCCCCCC)n1` [Compound S8S16D9]: the “Absolute mRNA transfection efficiency in HEK293 cells” value is 1.5%.
As for `CCCCCCCCCCCCCCCCSc1nc(NCC2CCN(C)CC2)nc(SCCCCCCCCCC)n1` [Compound S10S16D10], the “Absolute mRNA transfection efficiency in HEK293 cells” value worked out at 47.4%.

Source of the values: US20230123334A1, “AMINO LIPID COMPOUND, PREPARATION METHOD THEREFOR, AND APPLICATION THEREOF” (SHENZHEN SHENXIN BIOTECHNOLOGY CO., LTD., priority 2020, published 2023).
